In US12643881B2, “Bicyclic amine CDK12 inhibitors” (Incyte Corporation, priority 2021, dated 2026):

molecular target: T1, CDK12 complexed with Cyclin K (Homo sapiens, UniProt Q9NYV4); assay: CDK Enzymatic Assays (HTRF, LANCE Ultra kinase assay), Example A1; type: biochemical; conditions: enzyme pre-incubated with compounds for 60 minutes prior to addition of ATP (1 mM final) and Ulight-peptide; reaction 60-90 minutes at room temperature
T1 construct: GST (N)
Outline: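 N-terminal GST-tagged human CDK12 co-expressed with full-length Cyclin K (baculovirus), pre-incubated with compound 60 min, then 1 mM ATP and 50 nM ULight-4E-BP1 peptide added in HEPES pH 7.5 buffer; 60-90 min at room temperature. EDTA/Eu-antibody stop, HTRF 665/620 ratio normalized to controls; IC50 from 3- or 4-parameter fit.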

T1 sequence (Q9NYV4 whole entry): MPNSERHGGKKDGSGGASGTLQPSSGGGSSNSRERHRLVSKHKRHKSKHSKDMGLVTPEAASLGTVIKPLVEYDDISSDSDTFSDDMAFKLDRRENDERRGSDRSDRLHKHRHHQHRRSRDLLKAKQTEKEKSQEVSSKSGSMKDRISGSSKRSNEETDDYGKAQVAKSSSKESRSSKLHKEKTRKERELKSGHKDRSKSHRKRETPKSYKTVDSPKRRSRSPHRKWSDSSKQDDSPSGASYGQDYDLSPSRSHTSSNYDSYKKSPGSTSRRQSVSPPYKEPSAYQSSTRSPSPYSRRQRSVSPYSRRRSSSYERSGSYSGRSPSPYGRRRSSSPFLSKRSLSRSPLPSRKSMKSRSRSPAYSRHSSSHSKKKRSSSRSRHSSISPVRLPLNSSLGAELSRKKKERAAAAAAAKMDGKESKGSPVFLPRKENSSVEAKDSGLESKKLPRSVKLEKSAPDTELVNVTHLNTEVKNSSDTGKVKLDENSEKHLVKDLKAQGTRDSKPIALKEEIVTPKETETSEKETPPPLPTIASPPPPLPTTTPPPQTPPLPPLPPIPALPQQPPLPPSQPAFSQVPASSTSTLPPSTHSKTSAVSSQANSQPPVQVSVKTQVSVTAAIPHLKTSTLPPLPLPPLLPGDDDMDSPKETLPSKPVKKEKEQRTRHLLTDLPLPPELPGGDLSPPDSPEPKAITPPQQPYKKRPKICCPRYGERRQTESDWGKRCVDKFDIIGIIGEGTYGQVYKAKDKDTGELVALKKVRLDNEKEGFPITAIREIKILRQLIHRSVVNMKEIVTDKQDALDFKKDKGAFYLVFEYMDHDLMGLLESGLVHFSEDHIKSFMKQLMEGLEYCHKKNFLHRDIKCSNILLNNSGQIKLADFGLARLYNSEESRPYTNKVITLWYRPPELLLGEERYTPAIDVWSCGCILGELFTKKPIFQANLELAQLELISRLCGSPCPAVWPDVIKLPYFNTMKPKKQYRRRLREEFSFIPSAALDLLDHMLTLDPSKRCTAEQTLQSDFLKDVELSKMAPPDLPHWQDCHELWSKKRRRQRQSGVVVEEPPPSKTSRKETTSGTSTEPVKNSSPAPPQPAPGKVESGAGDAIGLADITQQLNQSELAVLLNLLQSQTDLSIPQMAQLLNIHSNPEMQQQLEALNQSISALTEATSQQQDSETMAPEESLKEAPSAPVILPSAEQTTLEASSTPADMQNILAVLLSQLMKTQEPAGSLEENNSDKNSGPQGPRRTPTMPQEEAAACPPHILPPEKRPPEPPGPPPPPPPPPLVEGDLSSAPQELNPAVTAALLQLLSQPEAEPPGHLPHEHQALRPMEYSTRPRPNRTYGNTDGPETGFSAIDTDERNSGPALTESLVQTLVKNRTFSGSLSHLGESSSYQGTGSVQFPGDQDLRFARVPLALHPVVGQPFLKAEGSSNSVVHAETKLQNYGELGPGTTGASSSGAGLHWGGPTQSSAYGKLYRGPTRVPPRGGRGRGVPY
T1 sequence (O75909 whole entry partner): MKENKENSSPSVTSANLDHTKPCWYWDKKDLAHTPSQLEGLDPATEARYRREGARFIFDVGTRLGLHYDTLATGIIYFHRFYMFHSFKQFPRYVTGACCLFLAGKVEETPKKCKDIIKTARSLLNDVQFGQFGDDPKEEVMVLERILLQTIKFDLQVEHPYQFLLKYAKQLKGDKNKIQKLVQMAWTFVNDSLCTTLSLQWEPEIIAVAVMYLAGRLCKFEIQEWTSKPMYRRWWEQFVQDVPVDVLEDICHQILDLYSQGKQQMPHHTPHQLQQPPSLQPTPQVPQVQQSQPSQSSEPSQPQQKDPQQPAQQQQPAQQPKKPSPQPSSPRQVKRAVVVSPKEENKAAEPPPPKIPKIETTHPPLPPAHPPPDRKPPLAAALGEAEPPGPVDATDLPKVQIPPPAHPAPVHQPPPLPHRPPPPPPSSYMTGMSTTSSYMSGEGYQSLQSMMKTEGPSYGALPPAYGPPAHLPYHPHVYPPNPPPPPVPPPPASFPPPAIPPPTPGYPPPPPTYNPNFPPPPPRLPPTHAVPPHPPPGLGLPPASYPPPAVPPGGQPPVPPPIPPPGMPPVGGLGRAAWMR

Compound	IC50
C=CC(=O)Nc1ccc2c(c1)C(=O)N([C@H]1CCC[C@@H](Nc3ncc(C(C)C)cn3)C1)C2 [Example 12, N-(2-((1S,3R)-3-((5-Isopropylpyrimidin-2-yl)amino)cyclohexyl)-3-oxoisoindolin-5-yl)acrylamide]	< 50 nM
C=CC(=O)Nc1ccc2c(c1)C(=O)N([C@H]1CCC[C@@H](Nc3cc(C#N)c(C(F)(F)F)cn3)C1)C2 [Example 19, N-(2-((1S,3R)-3-((4-Cyano-5-(trifluoromethyl)pyridin-2-yl)amino)cyclohexyl)-3-oxoisoindolin-5-yl)acrylamide]	< 50 nM
C=CC(=O)Nc1ccc2c(c1)nc(N1CC[C@@H](F)[C@@H](Nc3ncc(C(F)(F)F)cn3)C1)n2C [Example 90, N-(2-((3S,4R)-4-Fluoro-3-((5-(trifluoromethyl)pyrimidin-2-yl)amino)piperidin-1-yl)-1-methyl-1H-benzo[d]imidazol-5-yl)acrylamide]	< 50 nM
COc1nc(N[C@@H]2CCC[C@H](c3nc4cc(NC(=O)C(C)Br)ccc4n3C)C2)ncc1C#N (stereo partly drawn) [Example 52, 2-Bromo-N-(2-((1S,3R)-3-((5-cyano-4-methoxypyrimidin-2-yl)amino)cyclohexyl)-1-methyl-1H-benzo[d]imidazol-5-yl)propanamide]	< 50 nM
C=CC(=O)Nc1ccc2c(c1)C(=O)N([C@H]1CCC[C@@H](Nc3ncc(C#N)c(N4CCOCC4)n3)C1)C2 [Example 76, N-(2-((1S,3R)-3-((5-Cyano-4-morpholinopyrimidin-2-yl)amino)cyclohexyl)-3-oxoisoindolin-5-yl)acrylamide]	< 50 nM
C=CC(=O)N1C2CCC1CN(c1nccn3c(N4CCC[C@@H](Nc5ncc(C(F)(F)F)cn5)C4)ncc13)C2 [Example 109, 1-(3-(3-((R)-3-((5-(Trifluoromethyl)pyrimidin-2-yl)amino)piperidin-1-yl)imidazo[1,5-a]pyrazin-8-yl)-3,8-diazabicyclo[3.2.1]octan-8-yl)prop-2-en-1-one]	< 50 nM
C=CC(=O)Nc1cccc2c1ncn2[C@H]1CCC[C@@H](Nc2ncc(C#N)cn2)C1 [Example 69, N-(1-((1S,3R)-3-((5-Cyanopyrimidin-2-yl)amino)cyclohexyl)-1H-benzo[d]imidazol-4-yl)acrylamide]	< 50 nM
C=CC(=O)Nc1ccc2c(c1)C(=O)N([C@H]1CCC[C@@H](Nc3ncc(-c4ccc(OC)cc4)cn3)C1)C2 [Example 4, N-(2-((1S,3R)-3-((5-(4-Methoxyphenyl)pyrimidin-2-yl)amino)cyclohexyl)-3-oxoisoindolin-5-yl)acrylamide]	> 500 nM

More lines, now with the values ahead:

IC50	Compound
< 50 nM	C=CC(=O)Nc1cccc2c(N3CCC[C@@H](Nc4ncc(C#N)c(OC)n4)C3)noc12 [Example 28, (R)—N-(3-(3-((5-Cyano-4-methoxypyrimidin-2-yl)amino)piperidin-1-yl)benzo[d]isoxazol-7-yl)acrylamide]
< 50 nM	C=CC(=O)Nc1ccc2c(c1)nc(N1CCC[C@@H](Nc3ncc(C#N)c(OC)n3)C1)n2C [Example 37, (R)—N-(2-(3-((5-Cyano-4-methoxypyrimidin-2-yl)amino)piperidin-1-yl)-1-methyl-1H-benzo[d]imidazol-5-yl)acrylamide]
< 50 nM	C=CC(=O)Nc1ccc2oc(N3CCC[C@@H](Nc4ncc(C#N)c(OC)n4)C3)nc2c1 [Example 36, (R)—N-(2-(3-((5-Cyano-4-methoxypyrimidin-2-yl)amino)piperidin-1-yl)benzo[d]oxazol-5-yl)acrylamide]
50 to 500 nM	C=CC(=O)Nc1nn(C)c2c(N3CC[C@@H](Nc4ncc(C#N)cn4)C3)cccc12 [Example 20, (R)—N-(7-(3-((5-Cyanopyrimidin-2-yl)amino)pyrrolidin-1-yl)-1-methyl-1H-indazol-3-yl)acrylamide]
< 50 nM	C=CC(=O)Nc1cncc2sc(N3CC[C@@H](Nc4ncc(C#N)c(OC)n4)C3)nc12 [Example 38, (R)—N-(2-(3-((5-Cyano-4-methoxypyrimidin-2-yl)amino)pyrrolidin-1-yl)thiazolo[5,4-c]pyridin-7-yl)acrylamide]
< 50 nM	C=CC(=O)Nc1ccc2c(c1)C(=O)N([C@H]1CCC[C@@H](Nc3ncc(C#N)c(OC)n3)C1)C2 [Example 83, N-(2-((1S,3R)-3-((5-Cyano-4-methoxypyrimidin-2-yl)amino)cyclohexyl)-3-oxoisoindolin-5-yl)acrylamide]
< 50 nM	C=CC(=O)Nc1cccc2c1cnn2[C@H]1CCC[C@@H](Nc2ncc(C#N)c(OC)n2)C1 [Example 24, N-(1-((1S,3R)-3-((5-Cyano-4-methoxypyrimidin-2-yl)amino)cyclohexyl)-1H-indazol-4-yl)acrylamide]
< 50 nM	C=CC(=O)Nc1ccc2c(c1)nc([C@H]1CCC[C@@H](Nc3ncc(C#N)c(OC)n3)C1)n2CCO [Example 47, N-(2-((1S,3R)-3-((5-Cyano-4-methoxypyrimidin-2-yl)amino)cyclohexyl)-1-(2-hydroxyethyl)-1H-benzo[d]imidazol-5-yl)acrylamide]
< 50 nM	C=CC(=O)Nc1ccc2c(N3CCC[C@@H](Nc4ncc(C#N)c(OC)n4)C3)nn(C)c2c1 [Example 43, (R)—N-(3-(3-((5-Cyano-4-methoxypyrimidin-2-yl)amino)piperidin-1-yl)-1-methyl-1H-indazol-6-yl)acrylamide]
< 50 nM	COc1nc(N[C@@H]2CCC[C@H](c3nc4cc(NC(=O)CCl)ccc4n3C)C2)ncc1C#N [Example 50, 2-Chloro-N-(2-((1S,3R)-3-((5-cyano-4-methoxypyrimidin-2-yl)amino)cyclohexyl)-1-methyl-1H-benzo[d]imidazol-5-yl)acetamide]
50 to 500 nM	C=CC(=O)Nc1nn(C)c2cc(N3CC[C@@H](Nc4ncc(C#N)c(OC)n4)C3)ccc12 [Example 21, (R)—N-(6-(3-((5-Cyano-4-methoxypyrimidin-2-yl)amino)pyrrolidin-1-yl)-1-methyl-1H-indazol-3-yl)acrylamide]
< 50 nM	C=CC(=O)Nc1nc2cccc(N3CCC[C@@H](Nc4ncc(C#N)c(OC)n4)C3)n2n1 [Example 22, (R)—N-(5-(3-((5-Cyano-4-methoxypyrimidin-2-yl)amino)piperidin-1-yl)-[1,2,4]triazolo[1,5-a]pyridin-2-yl)acrylamide]

molecular target: T1, CDK12 complexed with Cyclin K; assay: Alternative CDK Enzymatic Assays (HTRF, pre-incubation with compounds and 1 mM ATP), Example A2; type: biochemical; conditions: enzyme pre-incubated with compounds and 1 mM ATP for 60 minutes; reaction 120 minutes at 25° C.
Excerpt: Example A2. Alternative CDK Enzymatic Assays
The following activity of the CDK enzymes in complex with their respective cyclins we assayed: CDK1 complexed with Cyclin B1; CDK2 complexed with Cyclin E1; CDK4 complexed with Cyclin D1; CDK6 complexed with Cyclin D1; CDK6 complexed with Cyclin D3; CDK9 complexed with Cyclin T1; CDK7 complexed with Cyclin H/MAT1; CDK2 complexed with Cyclin A2; CDK5 complexed with p35; CDK12 complexed with Cyclin K; CDK13 complexed with Cyclin K. These in vitro enzyme activity are assayed using homogeneous time-resolved energy transfer (HTRF), which measures phosphorylation of a peptide substrate. The LANCER Ultra kinase assay (PerkinElmer) uses a ULight™-labeled EIF4E-binding protein 1 (THR37/46) peptide (DYSTTPGGTLFSTTPGTRI (SEQ ID NO: 1)) substrate and a Europium-labeled anti-phospho-4E-BP1 antibody (CDK2, CDK1, CDK4, CDK6, CDK9, CDK12, CDK13) or ULight™-labeled Myelin Basic Protein peptide (VTPRTPPP (SEQ ID NO: 2)) substrate and a Europium-labeled anti-phospho-MBP antibody (CDK7). Each CDK enzyme activity assays utilized human CDK co-expressed as N-terminal GST-tagged protein with its full length cyclin partner using a baculovirus expression system.
Enzyme was pre-incubated with compounds and 1 mM ATP for 60 minutes (CDK 1, 2, 4, 6, 9, 7, 12, 13) prior to the addition of ATP and Ulight-peptide (1 mM and 50 nM final, respectively), in assay buffer containing 50 mM HEPES pH 7.5, 1 mM EGTA, 10 mM MgCl2, 2 mM DTT, 0.05 mg/mL BSA, and 0.01% Tween 20. The reaction was then incubated for 120 minutes at 25° C. incubator. The reactions were stopped by the addition of EDTA and Europium labeled antibody, for a final concentration of 15 mM and 0.5-1.5 nM, respectively. HTRF signals were read after 15-120 minutes. A ratio of fluorescence transferred to the labeled substrate (665 nm) relative to fluorescence of the Europium donor (620 nm) represents the extent of phosphorylation. Ratios for treated wells were normalized to DMSO only (100% activity) and no enzyme (0% activity) controls. Normalized data was analyzed using a three or four parameter dose response curve to determine IC50 for each compound and are shown in Table B. Control reference inhibitors were included on each plate.

IC50	Compound
> 500 nM	Cc1cc2c(cc1NC(=O)/C=C/CN(C)C)nc(N1C[C@H](F)C[C@@H](Nc3ncc(C(F)(F)F)cn3)C1)n2C [Example 120, (E)-4-(Dimethylamino)-N-(2-((3R,5R)-3-fluoro-5-((5-(trifluoromethyl)pyrimidin-2-yl)amino)piperidin-1-yl)-1,6-dimethyl-1H-benzo[d]imidazol-5-yl)but-2-enamide]
< 50 nM	C=CC(=O)N(c1ccc2c(c1)nc(N1CCC[C@@H](Nc3ncc(C(F)(F)F)cn3)C1)n2C)C1CCOC1 (stereo partly drawn) [Example 165, N-(1-Methyl-2-((R)-3-((5-(trifluoromethyl)pyrimidin-2-yl)amino)piperidin-1-yl)-1H-benzo[d]imidazol-5-yl)-N-(tetrahydrofuran-3-yl)acrylamide]
50 to 500 nM	C=CC(=O)Nc1cc2nc(N3C[C@H](F)C[C@@H](Nc4ncc(C#N)c(N(C)C)n4)C3)n(C)c2cc1C [Example 157, N-(2-((3R,5R)-3-((5-Cyano-4-(dimethylamino)pyrimidin-2-yl)amino)-5-fluoropiperidin-1-yl)-1,6-dimethyl-1H-benzo[d]imidazol-5-yl)acrylamide]
< 50 nM	COCC#CC(=O)Nc1cc2nc(N3C[C@H](F)C[C@@H](Nc4ncc(C(F)(F)F)cn4)C3)n(C)c2cc1C [Example 114, N-(2-((3R,5R)-3-Fluoro-5-((5-(trifluoromethyl)pyrimidin-2-yl)amino)piperidin-1-yl)-1,6-dimethyl-1H-benzo[d]imidazol-5-yl)-4-methoxybut-2-ynamide]
< 50 nM	C=CC(=O)Nc1cc2nc(N3C[C@H](F)C[C@@H](Nc4ncc(C(F)(F)F)cn4)C3)n(C)c2cc1Cl [Example 134, N-(6-Chloro-2-((3R,5R)-3-fluoro-5-((5-(trifluoromethyl)pyrimidin-2-yl)amino)piperidin-1-yl)-1-methyl-1H-benzo[d]imidazol-5-yl)acrylamide]
